Patent US20240327787A1, “CULTURE MEDIUM, COATING MATRIX AND METHOD FOR EXPANDING MIDBRAIN DOPAMINERGIC PROGENITOR CELLS” (NUWACELL BIOTECHNOLOGIES CO., LTD., priority 2022, published 2024)
Structures can show the parent of a compound that is named as a salt.

Tested on: imDAPs
Assay: Flow cytometry analysis of FOXA2 expression in expanded imDAPs
Type: cell-based, human
Details: VTN-coated
Protocol: 1. Individualize and collect cells by either Accutase or TrypLE treatment.
2. Wash cells with 1 ml PBS and pellet cells at 250×g for 15 sec.
3. Remove supernatant, add ˜200 μl of 4% PFA, mix and fix for 10 min at RT.
4. Pellet cells at 350×g for 5 min.
5. Wash cells by 1 ml of FACS buffer and pellet cells at 350×g for 5 min.
6. Remove supernatant, add 200 μl/tube of FACS buffer/0.1% TritonX, mix for 10 min at RT.
7. Wash cells by 1 ml of FACS buffer and pellet cells at 350×g for 5 min.
8. Remove supernatant, add 200 μl/tube of primary antibody diluted in FACS buffer, mix gently, and incubate for 30 min at RT.
9. Wash cells by 1 ml of FACS buffer and pellet cells at 350×g for 5 min.
10. Remove supernatant, and add 200 μl of secondary antibody diluted in FACS buffer, mix gently, and incubate for 30 min at RT.
11. Wash cells by 1 ml of FACS buffer and pellet cells at 300×g for 5 min.
12. Remove supernatant, add 200 μl of FACS buffer, and run samples on the flow cytometry.
imDAPs were produced according to the method described in CN201910169525.0. The imDAPs (P0) were seeded on VTN-coated plates (1 μg/cm^2) at a low density of 1×10^4 cells/cm^2, and cultured in the expansion medium (50% DMEM/F12, 50% Neurobasal™ medium, 1% (v/v) Glutamax, 2% (v/v) B27 (50×), 0.2 μM LDN193189, 3 μM CHIR99021, 100 ng/mL FGF8b) with either 5 μM Blebbistatin or 10 μM Y27632. Medium was replaced every 3rd day. At Day 6, cells were collected for FACS analysis.
imDAPs were produced according to the method described in CN201910169525.0. The imDAPs (P0) were seeded on DLL4-coated (1 μg/cm^2), VTN-coated (1 μg/cm^2) and DLL4/VTN-coated (1 μg/cm^2 for each) plates at a low density of 1×10^4 cells/cm^2 respectively, and cultured in the expansion medium in the absence or presence of 5 μM SB431542. Medium was replaced every 3rd day until reaching 100% confluence (6 days) for cell collection. The typical cell morphology on day 4 was recorded (FIG. 4A). The cell number of each group was counted by Vi-cell cytometer (FIG. 4B). The cells of each group were stained with Foxa2-PE antibody (BD, #561589), the percentage of Foxa2+ imDAPs were analyzed by flow cytometry (FIG. 4C). The expansion medium used in this example contained the following components: 50% DMEM/F12, 50% Neurobasal™ medium, 1% (v/v) Glutamax, 1% (v/v) B27, 50 μg/ml ascorbic acid, 0.2 μM LDN193189, 100 ng/ml FGF8b, 3 μM CHIR99021 and 10 µM Y27632.
imDAPs were produced according to the method described in CN201910169525.0. The imDAPs (P0) were seeded on DLL4/VTN-coated (1 μg/cm^2 for each) plates at a low density of 1×10^4 cells/cm^2, and cultured in the expansion medium (EM1, EM2, EM3, EM4). Medium was replaced every 3rd day until reaching 100% confluence (6 days) for cell collection. EM1 used in Example 9 contained the following components: 50% DMEM/F12, 50% Neurobasal™ medium, 1% (v/v) Glutamax, 1% (v/v) B27 (50×), 50 μg/ml ascorbic acid, 3 μM CHIR99021, 5 μM SB431542 and 10 μM Y27632. EM2 used in Example 9 contained the following components: 50% DMEM/F12, 50% Neurobasal™ medium, 1% (v/v) Glutamax, 1% (v/v) B27 (50×), 50 μg/ml ascorbic acid, 0.2 μM LDN193189, 3 μM CHIR99021, 5 μM SB431542 and 10 μM Y27632. EM3 used in Example 9 contained the following components: 50% DMEM/F12, 50% Neurobasal™ medium, 1% (v/v) Glutamax, 1% (v/v) B27 (50×), 50 μg/mL ascorbic acid, 0.2 μM LDN193189, 100 ng/ml FGF8b, 3 μM CHIR99021, 5 μM SB431542 and 10 μM Y27632. […]

## C[C@@H](N)[C@H]1CC[C@H](C(=O)Nc2ccncc2)CC1 [Y27632, (R)-(+)-trans-4-(1-aminoethyl)-N-(4-pyridyl) cyclohexanecarboxamide dihydrochloride]
10 μM Y27632 vs 5 μM Blebbistatin in expansion medium, 1×10^4 cells/cm^2, Day 6
  percentage of Foxa2-expressing cells (FIG. 2): capable of improving the percentage of Foxa2-expressing cells than Blebbistatin
Expansion medium with 10 μM Y27632
  percentage of Foxa2-expressing cells during passages: still decreased during passages
